Experimental findings from ChEMBL document CHEMBL4715909, “Identification of Plasmodium falciparum heat shock 90 inhibitors via molecular docking” (Bioorg Med Chem Lett, 2021) are described below.

Data set [1] has as its system BJ. Description: Cytotoxicity against human BJ cells assessed as reduction in cell viability. It counts as cell-based.
Data set [2] has as its system Plasmodium falciparum. In words: Antimalarial activity against Plasmodium falciparum 3D7 assessed as reduction in parasitic growth. It counts as functional, organism-based.
The subject of data set [3] is Plasmodium falciparum. In words: Antimalarial activity against Plasmodium falciparum 3D7 assessed as reduction in parasitic growth at 16 uM relative to control. It counts as functional. The arrangement: scale not given: the % may be the effect or the level left.
The test system of data set [4] is BJ. In words: Cytotoxicity against human BJ cells assessed as reduction in cell viability at 58 uM by relative to control. It counts as cell-based.

As for `Cc1c(C(=O)Nc2ccc3ccc(=O)oc3c2)nnn1-c1ccc2noc(-c3ccccc3)c2c1`, the results for the EC50 in the data set with BJ [1] and with Plasmodium falciparum [2] were greater than 24 µM and 15.7 µM, respectively.

Regarding `Cc1nnc(-c2nn(-c3ccc(C(=O)N4CCC[C@H](C)C4)cc3)c(-c3ccc(F)cc3)c2C)o1`, the EC50 in the data set with BJ [1] was greater than 24 µM; in the data set on Plasmodium falciparum [2], 5.5 µM.

`O=C(c1cccc(S(=O)(=O)N2CCc3ccccc32)c1)N1CCC(c2nnc3ccccn23)CC1`: the EC50 with BJ [1] was greater than 24 µM; in the data set on Plasmodium falciparum [2], greater than 18 µM.

Consider `O=C(c1cccc(Nc2nc3ccccc3n3nnnc23)c1)N1CCc2ccccc2C1`, for which the results for the EC50 in the data set with BJ [1] and in the data set on Plasmodium falciparum [2] were greater than 24 µM and 3.44 µM, respectively.

Take `O=C(N[C@H]1CCc2ccccc21)C1CCN(c2ncccc2-c2nc(-c3ccccc3)no2)CC1`: the EC50 was greater than 24 µM with BJ [1] and 1.11 µM with Plasmodium falciparum [2].

Turning to `O=C(NCc1ccc2c(c1)OCO2)C1CCN(c2ncnc3onc(-c4cccc(F)c4)c23)CC1`, the EC50 in the data set with BJ [1] is greater than 24 µM; with Plasmodium falciparum [2], 0.98 µM.

Take `O=C(c1ccc2noc(-c3ccccc3)c2c1)N1CCC[C@H](c2nnc3ccccn23)C1`: the EC50 in the data set on BJ [1] is greater than 24 µM; in the data set on Plasmodium falciparum [2] it was greater than 18 µM.

Regarding `O=C(CCn1c(=O)c2ccccc2n(Cc2ccccc2F)c1=O)N1CCc2ccccc2C1`, the EC50 in the data set with BJ [1] is greater than 24 µM; in the data set on Plasmodium falciparum [2] it was greater than 18 µM.

Turning to `Cc1cccc(-c2nc(C3CCN(C(=O)[C@H]4CC(=O)N(c5ccc(C)c(C)c5)C4)CC3)no2)c1`, the concentration giving a half-maximal response (EC50) was greater than 24 µM in the data set with BJ [1] and 12.1 µM with Plasmodium falciparum [2].

On to `O=C1CN(C(=O)CN2C[C@H](C(=O)N3CCCCC3)Oc3ccccc32)c2ccccc2N1`, for which the EC50 in the data set on BJ [1] is greater than 24 µM; in the data set on Plasmodium falciparum [2], greater than 18 µM.

Take `O=C(Cc1ccc2c(c1)OCO2)N1CCC(c2nc(=O)c3nnn(Cc4ccccc4F)c3[nH]2)CC1`: the EC50 is greater than 24 µM with BJ [1] and 12.7 µM in the data set on Plasmodium falciparum [2].

As to `c1ccc(-c2nnn3c2nc(N2CCN(Cc4ccc5c(c4)OCO5)CC2)c2ccccc23)cc1`, the EC50 with BJ [1] is greater than 24 µM; in the data set with Plasmodium falciparum [2], 17 µM.

Regarding `O[C@@H](c1cc(C(F)(F)F)nc2c(C(F)(F)F)cccc12)[C@H]1CCCCN1` [(S,R)-MEFLOQUINE], in the data set with Plasmodium falciparum [3], the Activity was determined as 100%.

On to `CC(=O)[C@]1(O)Cc2c(O)c3c(c(O)c2[C@@H](O[C@H]2C[C@H](N)[C@H](O)[C@H](C)O2)C1)C(=O)c1ccccc1C3=O` [IDARUBICIN], for which the Activity in the data set on BJ [4] is 100%.
